Consider 63 compounds from a melting point compilation (Tetko et al.; mined from patent text by program, amines drawn as free bases though some values may be those of a salt).

A word on the melting point: it is the temperature of the solid-liquid transition. With `CN1CC(CCN2CCN(c3ccccn3)CC2)c2nc3ccccc3n2C1=O` (stereo not drawn), the melting point lay within 158 to 159 °C.
With `CN1CCN(c2ccc(N/C=C3\C(=O)NC(=O)c4ccc(C(=O)O)cc43)cc2)CC1`, the melting point lay within 278 to 280 °C.
On to `CC(C)(Cl)Cn1ncc(Cl)c(Cl)c1=O`, for which the melting point is 61 to 66 °C.
Compound `COC(=O)CNC(=O)CC(=O)CBr` registered a melting point of 76 to 77 °C.
On to `COc1ccc2cc3c(N)nn(-c4ccccc4)c3nc2c1`, for which the melting point lay within 159 to 160 °C.
Under `CC(O)=C(C#N)C(=O)Nc1cc(Cl)ccc1Cl` stands 143 to 144 °C; under `COc1ccc(Oc2cc3nc(-c4ccc(Cl)cc4Cl)oc3cc2[N+](=O)[O-])cc1`, 144 to 146 °C; under `CC(Oc1ccc(Oc2cnc3cc(Cl)ccc3n2)cc1)C(=O)Nc1ccc(OC(F)(F)C(Cl)(Cl)Cl)cc1` (stereo not drawn), 139 to 141 °C.
In turn, `C=CCONC(=O)n1nc(Oc2c(Cl)cc(C(F)(F)F)cc2Cl)cc1C` returned a melting point of 68 to 70 °C.
In turn, `O=C(c1ccccc1)N1CCc2[nH]c3cccc(CCCOc4ccccc4)c3c2CC1` showed a melting point of 121 to 124 °C.
`CC(=N)NS(=O)(=O)C=Cc1ccccc1[N+](=O)[O-]`: the melting point was 175 to 178 °C.
Under `O=C(NCCCl)Sc1ncnc2nc[nH]c12` stands 221 to 223 °C; under `CC1(C)OCCC2C(C3(O)CCSCC3)C(=O)N21` (stereo not drawn), 133 to 134 °C.
Compound `CCCCS(=O)c1ccc(C(=O)OC)nc1` (stereo not drawn) had a melting point of 150 to 154 °C.
`O=C(Cn1c(-c2ccncc2)ncc(NC(=O)OCc2ccccc2)c1=O)NC(Cc1ccccc1)C(=O)C(F)(F)F` (stereo not drawn) returned a melting point of 182 to 185 °C.
In turn, `COc1ccc(Cl)cc1[C@]1(F)C(=O)N(C(=O)NC(C)(C)C(=O)OC(C)(C)C)c2cc(C(F)(F)F)ccc21` showed a melting point of 57 to 60 °C.
Under `O=C(O)CC(Cc1c[nH]c2ccccc12)C(=O)O` (stereo not drawn) stands 144 to 145 °C; under `CC(C)(NC(=O)c1cc2c(n(CC3CCCCC3)c1=O)CCCCCC2)C(=O)N(N)S(C)(=O)=O`, 177 to 178 °C.
Under `COC(=O)c1nc(CCN(C)C)n2c1CN=C(c1ccccc1Cl)c1cc(Cl)ccc1-2` stands 203 to 204 °C; under `OCc1ccccc1CCCc1cc2c(cc1O)CCO2`, 110 to 112 °C.
Under `CCC(CC)N(O)C(=O)Nc1ccc(Cc2ccccc2)cc1` stands 132 to 134 °C; under `CCc1nc2c(N)nc3ccc(O)cc3c2n1CCCCNS(C)(=O)=O`, 128 to 130 °C.
Take `O=C(O)c1ccc(Cc2cc3cc(Cl)ccc3n2S(=O)(=O)c2ccc3c(c2)OCCO3)s1`: the melting point amounted to 196 °C.
In turn, `CNc1nc(=O)c2ccccc2n1Cc1ccc(F)cc1` registered a melting point of 251 to 255 °C.
Under `CSc1nc(SC)c2ccccc2n1` stands 85 °C; under `CCCCCCn1nnc(NC(=O)Nc2c(C(C)C)cccc2C(C)C)n1`, 154 to 156 °C.
Under `CC1Cc2c(nc3ccc(F)cc3c2C(=O)O)-c2ccc(-c3ccccc3F)cc21` (stereo not drawn) stands 274 to 277 °C; under `CC(=O)Nc1nc(C)c(CCC(C)c2ccc(Cl)cc2)c(NC(C)=O)n1` (stereo not drawn), 136 to 138 °C; under `COc1cccc(C(N)=O)c1N`, 140 to 141 °C.
In turn, `CC(O)C(=O)NCCNC(=O)C(C)O` (stereo not drawn) returned a melting point of 188 °C.
In turn, `CC1(C)COC(=O)N1c1nc(-c2ccc(C#N)cc2)cs1` came in with a melting point of 183 to 185 °C.
Regarding `NS(=O)(=O)c1cc2cc(-c3nc(C(F)(F)F)c[nH]3)ccc2s1`, the melting point is 285 to 286 °C.
For `CCCCNC(=O)Nc1ccc2c(c1Cl)C(c1ccccc1F)=NCC(=O)N2C`, the melting point lay within 196 to 198 °C.
For the compound `Cc1ccnc(Nc2nc(-c3ccccc3O)cs2)c1`, the melting point is 249 to 250 °C.
For the compound `Nc1nn2ccccc2c1N`, the melting point came to 190 °C.
`CC(C)(C)NCC(O)c1cc(Cl)c(N)c([N+](=O)[O-])c1` (stereo not drawn) displayed a melting point of 148 to 149 °C.
Under `CCC(CC)c1ccc(Cl)c2nc(Nc3ccc(Br)cc3C)n(CCCCO)c12` stands 151 to 152 °C.
Under `Cn1c2ccc([N+](=O)[O-])cc2c2c3ccccc3c(=O)[nH]c21` stands greater than 300 °C; under `CCC(C)(C)N1C(=O)C(=O)N(c2ccc(C#N)cc2)C1=S`, 173 to 174 °C; under `CCNC(=S)NS(=O)(=O)c1cc2c(cc1OC)OCC(NC(=O)c1cc(Cl)ccc1OC)C2` (stereo not drawn), 194 to 195 °C.
Regarding `COc1ccc(CN2C(=O)CC2CC(=O)O)c(OC)c1` (stereo not drawn), the melting point lay within 90 to 91 °C.
Under `Cc1onc(-c2ccccc2)c1-c1nc(-c2c(F)cccc2Cl)nn1C` stands 120 to 125 °C; under `COC(=O)CCCc1cc2cc(Cl)ccc2n1S(=O)(=O)c1cccc2ccccc12`, 94 to 97 °C; under `CCCn1cc(Cc2ccc(C(=O)NS(=O)(=O)c3ccccc3C)cc2OC)c2cc(CCNC(=O)N3CCOCC3)ccc21`, 117 to 123 °C.
`CC(C)(C)c1ccc(Cn2c(=S)n(Cc3ccc(NS(C)(=O)=O)cc3)c3ccccc32)cc1` showed a melting point of 176 to 178 °C.
For the compound `Cc1c(C(=O)N[C@H](C)[C@](O)(Cn2cncn2)c2ccc(F)cc2F)cnn1-c1cccc(C(F)(F)F)c1`, the melting point is 146 to 147 °C.
As to `Cc1cc(C)c2nc3sccn3c(=O)c2c1`, the melting point lay in the range of 190 to 192 °C.
In the case of `COC(=O)c1cc2ccc(Br)cc2s1`, the melting point lay within 108 to 110 °C.
Compound `Cc1[nH]n(C2CCC2)c2nc(-c3ccncc3)nc(=O)c1-2` had a melting point of 289 to 290 °C.
`CCC(C(C)=CC(CNC(=O)c1ccc2c(c1)CC(=O)N2)=NO)[N+](=O)[O-]` (stereo not drawn) gave a melting point of 111 to 114 °C.
Turning to `O=C(c1cccc(C(F)(F)F)c1)c1ccc[nH]1`, the melting point was 54 to 56 °C.
As to `COc1ccc2c(c1)C1(CCNC1)CC2O` (stereo not drawn), the melting point was 135 to 138 °C.
The compound `Cc1ccc(S(=O)(=O)OCCN(CCOS(=O)(=O)c2ccc(C)cc2)S(=O)(=O)c2ccc(C)cc2)cc1` registered a melting point of 85 to 87 °C.
Compound `CC[C@H](C)[C@H](NC(=O)OCc1ccccc1)C(=O)Nc1nncs1` (racemic) came in with a melting point of 145 to 149 °C.
`O=C(Nc1cccc(-c2ccccc2)c1)Nc1ccccc1CCO` gave a melting point of 196 to 198 °C.
Turning to `Nc1ncccc1-c1nc2cc(-c3cccnc3)cnc2n1-c1ccc(CNS(=O)(=O)C2CC2)cc1`, the melting point was in the range of 197 to 199 °C.
`N#Cc1ccc(-c2cn(-c3ccc(Br)cc3)c(C(=O)O)c2C(=O)O)cc1` yielded a melting point of 217 to 221 °C.
The compound `O=C(OC1CCN(Cc2ccccc2)CC1)c1ccc(I)cc1` gave a melting point of 77 to 78 °C.
`N#CCc1ccccc1-c1ccc(C(=O)N2Cc3ccc(C(=O)NCc4cccnc4)n3Cc3ccccc32)cc1` yielded a melting point of 105 to 108 °C.
`O=C(O)Cc1ccc(-n2cccn2)c(Br)c1` gave a melting point of 100 to 101 °C.
`O=C(CCCO)NCCO`: the melting point was 54 to 56 °C.
For `O=C(c1ccccc1)c1ccc(NC(=O)N2CCC3(CC2)OC(=O)c2ccccc23)cc1`, the melting point fell in the range of 161 to 163 °C.
`CCN(CC)CCOc1ccc(Nc2nccc(-c3cccnc3)n2)cc1` came in with a melting point of 87 to 89 °C.
